This is an account of results in US12384764B2, “Pharmaceutical compounds” (Pfizer Inc., priority 2019, dated 2025).

The nature of data set [1]: Liver microsomal stability, rat. Conditions: pooled liver microsomes, pH 7.4; rat liver microsomes 0.5 mg/mL, 1 μM compound, NADPH, 37° C.; read-out: Liver Microsomal Stability t½, rat. Type of data set: in vitro ADME. The method, then: (§1) Compounds were subjected to the following assays to investigate liver microsomal stability.
(§2) Microsomal Incubation: Experimental Procedure
(§3) Pooled liver microsomes were purchased from a reputable commercial supplier and stored at −80° C. prior to use. Microsomes (final protein concentration 0.5 mg/mL), 0.1 M phosphate buffer pH 7.4 and test compound (final substrate concentration 1 μM; final DMSO concentration 0.25%) were pre-incubated at 37° C. prior to the addition of NADPH (final concentration 1 mM) to initiate the reaction. The final incubation volume was 50 uL. A control incubation was included for each compound tested where 0.1 M phosphate buffer pH 7.4 was added instead of NADPH (minus NADPH). Two control compounds were included with each species. All incubations were performed singularly for each test compound. Each compound was incubated for 0, 5, 15, 30 and 45 min. The control (minus NADPH) was incubated for 45 min only. The reactions were stopped by transferring incubate into acetonitrile at the appropriate time points, in a 1:3 ratio. The termination plates are centrifuged at 3,000 rpm for 20 min at 4° C. to precipitate the protein. Following protein precipitation, the sample supernatants were combined in cassettes of up to 4 compounds, internal standard added, and samples analysed by LC-MS/MS. From a plot of ln peak area ratio (compound peak area/internal standard peak area) against time, the gradient of the line was determined. Subsequently, half-life (t1/2) and intrinsic clearance (CLint) were calculated.

Data set [2] in a line: Liver microsomal stability, dog. Type of data set: in vitro ADME. Conditions: pooled liver microsomes, pH 7.4; dog liver microsomes 0.5 mg/mL, 1 μM compound, NADPH, 37° C.; read-out: Liver Microsomal Stability t½, dog. As to the method:
as §1, §2, §3

A short description of the next data set: Cell cytotoxicity (CC50). Type of data set: cell-based. Conditions: human, Hep-G2 cells; mean of at least two experiments.
The nature of data set [3]: Liver microsomal stability, human. Type of data set: in vitro ADME. The conditions noted are these: pooled liver microsomes, pH 7.4; human liver microsomes 0.5 mg/mL, 1 μM compound, NADPH, 37° C.; read-out: Liver Microsomal Stability t½, human. The method, then:
as §1, §2, §3

In a further data set the test system is RSV A2. Description: RSV plaque reduction assay. It counts as cell-based. Conditions: human respiratory syncytial virus, HepG2, 48 h; Hep-G2 cells, RSV A2, 2 days incubation; mean of at least two experiments. As to the method: Compounds were subjected to an RSV plaque reduction assay according to the following protocol.
Hep-G2 cells (ECACC, 85011430) were passaged in flasks and seeded in 24-well plates in DMEM containing antibiotics and supplemented with 10% FBS. During inoculation and subsequent incubation, cells were cultured in DMEM containing 2% FBS. 100 plaque forming unit/well of RSV (RSV A2 ECACC, 0709161v) was mixed with eight serial dilutions of compound. Subsequently, 100 μL of the virus/compound mixtures was added to confluent Hep-G2 cell monolayers. The cells and virus/compound mixtures were incubated at 37° C. in a humidified 5% CO2 incubator for 2 h prior to removal of the inoculum and addition of 1 mL of overlay (DMEM containing FBS and 0.8% CMC) containing compound dilutions. The cells and were incubated at 37° C. in a humidified 5% CO2 incubator for 2 days.
Cells were washed with PBS before adding 75/25% v/v EtOH/MeOH, for 3 min. Fixative was removed and plates were washed with PBS. A pre-titrated amount of the primary antibody was added in 200 μL PBS/2% milk powder, and plates incubated for 90 min at 37° C. The plates were washed 3 times with PBS/0.05% Tween20 before addition of rabbit anti-goat horse radish peroxidase in 200 μL PBS/2% milk powder, and incubated for 1 h at 37° C. Following three wash steps with PBS/0.05% Tween20, 200 μL ready-to-use TrueBlue was added and plates were incubated at rt for 10-15 min before washing with water. After removal of water, plates were air-dried in the dark.
Plates were scanned and analysed using the Immunospot S6 Macro analyser, which is equipped with BioSpot analysis software for counting immunostained plaques (virospots). Plaque counts were used to calculate % infection relative to the mean of the plaque count in the virus control wells for RSV. The EC50 value was calculated as 50% reduction in signal, respectively, by interpolation of inhibition curves fitted with a 4-parameter nonlinear regression with a variable slope in Dotmatics. Plaque EC50 and cell toxicity CC50 values are a mean of at least two experiments and figures are rounded to whole units.

The subject of another data set is RSV. Conditions: Antimicrobial Agents and Chemotherapy, September 2007, 3346-3353; cited from earlier work.

Each structure is given as a SMILES string. Where only a bound is given, the exact number is not on record here.

For `CCn1ncc(C(=O)N[C@H]2N=C(c3ccccc3)c3ccccc3NC2=O)c1Oc1c(F)cc(C)cc1F` [Example 1, 5-(2,6-Difluoro-4-methylphenoxy)-1-ethyl-N-[(3S)-2-oxo-5-phenyl-1,3-dihydro-1,4-benzodiazepin-3-yl]pyrazole-4-carboxamide], the half-life at 1 μM in data set [1] was found to be 5 min; in data set [2], 38.6 min; in data set [3], 36 min. In addition, the CC50 at 2 days in the data set “Cell cytotoxicity (CC50)” was > 25000 nM. The same compound returned an EC50 with RSV A2 of 91 nM.

With `Cc1ccc(Oc2c(C(=O)N[C@H]3N=C(c4ccccc4)c4ccccc4NC3=O)cnn2C2CCOCC2)c(F)c1` [Example 2, 5-(2-Fluoro-4-methylphenoxy)-1-(oxan-4-yl)-N-[(3S)-2-oxo-5-phenyl-1,3-dihydro-1,4-benzodiazepin-3-yl]pyrazole-4-carboxamide], the CC50 at 2 days in “Cell cytotoxicity (CC50)” was > 25000 nM. In the data set with RSV A2, this compound returned an EC50 of 89 nM.

`O=C(N[C@H]1N=C(c2ccccc2)c2cccc(F)c2NC1=O)c1cnn(C2COC2)c1Oc1ccc(Cl)cc1F` [Example 3, 5-(4-Chloro-2-fluorophenoxy)-N-[(3S)-9-fluoro-2-oxo-5-phenyl-1,3-dihydro-1,4-benzodiazepin-3-yl]-1-(oxetan-3-yl)pyrazole-4-carboxamide]: the half-life at 1 μM in data set [1] was 38.3 min; in data set [2] it was 140 min; in data set [3], 24.5 min. Besides, the CC50 at 2 days in the data set “Cell cytotoxicity (CC50)” was > 25000 nM. For the same compound, the EC50 in the data set with RSV A2 came out at 71 nM.

`O=C(N[C@H]1N=C(c2ccccc2)c2cccc(F)c2NC1=O)c1cnn(C2CCOCC2)c1Oc1ccc(Cl)cc1F` [Example 4, 5-(4-Chloro-2-fluorophenoxy)-N-[(3S)-9-fluoro-2-oxo-5-phenyl-1,3-dihydro-1,4-benzodiazepin-3-yl]-1-(oxan-4-yl)pyrazole-4-carboxamide]: the half-life at 1 μM came to 19.7 min in data set [1], 117 min in data set [2] and 38.8 min in data set [3]. Also, the CC50 at 2 days in the data set “Cell cytotoxicity (CC50)” was > 25000 nM. In the data set on RSV A2, this compound had an EC50 of 67 nM.

`O=C(N[C@H]1N=C(c2ccccc2)c2cccc(F)c2NC1=O)c1cnn(C2COC2)c1Oc1c(F)cc(Cl)cc1F` [Example 5, 5-(4-Chloro-2,6-difluorophenoxy)-N-[(3S)-9-fluoro-2-oxo-5-phenyl-1,3-dihydro-1,4-benzodiazepin-3-yl]-1-(oxetan-3-yl)pyrazole-4-carboxamide]: the half-life at 1 μM in data set [1] stood at 42.3 min; in data set [2], 174 min; in data set [3] it was 15.8 min. In addition, the CC50 at 2 days in “Cell cytotoxicity (CC50)” was > 25000 nM. Also, it took 74 nM to reach a half-maximal effect with RSV A2 (EC50).

As for `O=C(N[C@H]1N=C(c2ccccc2)c2cccc(F)c2NC1=O)c1cnn(C2CCOCC2)c1Oc1c(F)cc(Cl)cc1F` [Example 6, 5-(4-Chloro-2,6-difluorophenoxy)-N-[(3S)-9-fluoro-2-oxo-5-phenyl-1,3-dihydro-1,4-benzodiazepin-3-yl]-1-(oxan-4-yl)pyrazole-4-carboxamide], the CC50 at 2 days in the data set “Cell cytotoxicity (CC50)” was > 25000 nM. Further, in the data set on RSV A2, the EC50 is 55 nM.

As to `O=C(Nc1ccccc1F)N[C@H]1N=C(c2ccccc2)c2ccccc2NC1=O` [RSV604], in the data set with RSV, the anti-RSV activity entry is on record as “sub-micromolar”.

Broadly, the CC50 is the concentration at which the toxic effect on the cells reaches its halfway point. Higher therefore signals better tolerance by the cells. A word on the EC50: it is the concentration that produces a half-maximal response.
